Test results published in patent publication US20190218170A1, “BRANCHED TRIALKYLAMINE PRECURSORS, INTERMEDIATES, PRODUCTS MADE THEREFROM AND PROCESSES OF MANUFACTURE” (priority 2018, published 2019).

Tests used:
[1] = Foam height, high shear (Waring blender); type: physicochemical; conditions: for Foam volume (ml) 5 min / Foam volume (ml) Initial: 0.05 wt % in deionized water; for Foam volume (ml) 5 min: after 5 minutes; for Foam volume (ml) Initial: blended on High 30 seconds; for % decrease: foam volume, initial to 5 min
Experimental: A 0.05 wt % (actives basis) solution of the test surfactant was made in deionized water. 250 ml of the test solution was added the beaker of a Waring blender, capped, and then blended on High for 30 seconds and immediately transferred to a 1 L graduated cylinder. The total volume of foam plus liquid, as well as the liquid layer alone was recorded. The foam and liquid volumes were recorded again after 5 minutes.

[2] = Stain removal in cold water, brightness L*; conditions: compared to LAO; additive 0.05% active
Experimental: Amine oxides with linear and branched hydrophobes were compared in a screen for stain removal in cold water. Simple laundry liquid formulations were made that included only surfactants and builder.
Standard stain swatches were purchased from Testfabrics, Inc. (West Pittston, Pa.). STC/CFT PC-S-216 is diluted red lipstick on poly/cotton (65/35), and STC/CFT PC-S-132 is high discriminative sebum (synthetic) with pigment on poly/cotton, both made by Center for Testmaterials BV (CFT; The Netherlands). The swatches were pre-cut into 2 inch squares. The test formulation was diluted with DI water to 0.06% total surfactant to make the wash solution. Additives were added at a final concentration of 0.05% active in the wash solution. Stained fabric swatches were added to the wash solution, washed and rinsed at 20° C., and air-dried. The average swatch brightness (L*) for each treatment, and standard deviation, are reported for 3 replicates. […] All treatments are brighter than the untreated stain swatches. The nonionics NPE and LAE7 removed the lipstick and sebum stains to the same brightness.

[3] = Draves Wetting Test (ASTM D2281-68); type: physicochemical; conditions: 0.05 wt % (actives basis) in DI water; average of 3 measurements
Experimental: A 0.05 wt % (actives basis) solution of amine oxide in deionized (DI) water was used to determine the Draves wet-out time (WOT) in seconds. 0.75 g of surfactant was dispersed in 1,500 ml of DI water. The wet-out time (WOT) in seconds is recorded in Table 14 (average of 3 measurements). LAO is Lauramine oxide (linear hydrophobe), Sigma catalog number 40236.

[4] = Salt thickening, viscosity of SLS/SLES/amine oxide formulation; type: physicochemical; conditions: shear rate 3/s
Experimental: Linear amine oxides tend to increase the viscosity of a formulation containing NaCl in a dose-dependent manner. The viscosity (cP; shear rate 3/s) of a simple formulation was measured as the salt concentration varied from 0 to 5 wt %.

[5] = tested on: zein protein; conditions: 1% surfactant solution, 30 C, 30 minutes
Description: Amine oxides with linear and branched hydrophobes from Examples 65 and 66 were compared in a screen to predict mildness of surfactants. There is a correlation between the ability of a surfactant to denature a protein and the skin irritation potential of that surfactant. The relationship is believed to result from surfactant binding to proteins like keratin, followed by the denaturation of these proteins, leading to skin irritation. A common screening test involves measuring the amount of zein (a corn protein which is insoluble in water) solubilized by a surfactant solution, the Zein Solubilization Test (Moore et al., 2003 and references therein)
For the test, 0.0750 g of zein protein is transferred into a 1.5 mL centrifuge tube. To this 1.5 mL of 1% surfactant solution is added, mixed, and placed in a 30 C incubator with mild stirring for 30 minutes. After 30 minutes has elapsed, the tube is centrifuged for 30 min at 3600 rpm. The solution is filtered through a pre-weighed 8 micron filter paper, and then dried overnight in a 50° C. oven. The insoluble zein residue is then weighed and the wt % Zein dissolved is calculated using the equation below. Each solution is analyzed in triplicate. The Zein score is normalized to a standard included in each set of tests, in this case LAE10.
% zein dissolved=(total zein added−total zein after drying Total zein added)×100

[6] = High-shear foaming of N-alkyl-N-methylglucamines in commercial blender; type: physicochemical; conditions: 1 wt % test substance in 10 wt % SDS, diluted to 0.05 wt % surfactant
Experimental: The high-shear foaming behavior of linear and branched N-alkyl-N glucamines was investigated, as this can have an impact on their performance in home care applications. […] The solutions were heated to 80° C., ultrasonicated for 1 h, and cooled to room temperature. Finally, the as-obtained solutions were diluted with MilliQ water to obtain a 0.05 wt % surfactant solution. In agreement with the literature on branched hydrophobes, the high-shear foaming tests performed in the commercial blender indicate that the linear N-decyl-N-methylglucamine (IC10 NMG) solution foams relatively more than its branched counterpart solution. For all solutions, the initial foam volume is between 40 and 53 mL. Lauramine oxide (LAO) appears to be foamier than the N-alkyl-N-methylglucamines.

[7] = Foaming of amine oxide added to commercial laundry liquid (Waring blender); type: physicochemical; design: Difference: unit: ml; conditions: for Difference: initial minus 5 min foam volume
Experimental: The surface foam volume and foam persistence of solutions of the amine oxides with linear and branched hydrophobes from Examples […] were compared. A commercial laundry liquid was diluted in deionized water according to the dosing instructions; 4.2 ml/L Persil Original. The diluted detergent was supplemented with 0%, 2%, 5% (based on wt laundry liquid) of LAO or Branched C12 AO, (2,4-diethyl-N,N-dimethyloctan-1-amine oxide, Example 66), and the solutions mixed briefly and used immediately. 250 ml of each test solution was added the beaker of a Waring blender, capped, and then blended on High for 30 seconds and immediately transferred to a 1 L graduated cylinder. The total volume of foam plus liquid, as well as the liquid layer alone was recorded. The foam and liquid volumes were recorded again after 5 minutes. All tests were performed in triplicate.

[8] = NaCl 0 wt %, 1.4% amine oxide, 4.3% SLS, 4.3% SLES

Structure (SMILES)	Foam volume (ml) 5 min [1]	Foam volume (ml) Initial [1]	% decrease [1]	Wet out time [3]	Viscosity [4, 8]	Viscosity ([4]; NaCl 0.5 wt %)	Viscosity ([4]; NaCl 1.0 wt %)	Viscosity ([4]; NaCl 1.5 wt %)	Viscosity ([4]; NaCl 2.0 wt %)	Viscosity ([4]; NaCl 2.5 wt %)	Viscosity ([4]; NaCl 3.0 wt %)	Viscosity ([4]; NaCl 3.5 wt %)	Viscosity ([4]; NaCl 4.0 wt %)	Viscosity ([4]; NaCl 4.5 wt %)	Viscosity ([4]; NaCl 5.0 wt %)	further results
CCCCC(CC)CC(C)C[N+](C)(C)[O-] (stereo not shown) [Example 65, 4-ethyl-N,N-2-trimethyloctan-1-amine oxide]	0 mL	267 mL	100%	>300 s	2 cP	7 cP	36 cP	257 cP	2,050 cP	3,635 cP	3,459 cP	2,021 cP	670 cP	288 cP	148 cP	foam in the wash solution [2]: very little foam
CCCCCCCCCCCC[N+](C)(C)[O-] [LAO, N,N-dimethyl laurylamine oxide, reference compound]	500 mL	523 mL	4%	33 s	2 cP	2 cP	11 cP	115 cP	1,494 cP	7,562 cP	17,343 cP	25,302 cP	27,585 cP	24,918 cP	19,368 cP	Zein score - normalized to LAE10 [5]: 4.212; Foam volume after 5 seconds stirring at speed 1 [6]: 53 mL; Foam volume after 5 minutes settling [6]: 50 mL; Foam volume After 5 min ([7]; Persil + 2% additive): 473 mL; Difference ([7]; Persil + 2% additive): 54; Foam volume After 5 min ([7]; Persil + 5% additive): 507 mL; Difference ([7]; Persil + 5% additive): 6; Initial foam volume ([7]; Persil Original 4.2 ml/L + 2% additive): 527 mL; Initial foam volume ([7]; Persil Original 4.2 ml/L + 5% additive): 513 mL
